According to ChEMBL document CHEMBL3243932, “Potential antiinflammatory compounds. 3. Compounds derived from acenaphthene and indan” (J Med Chem, 1979):
The source made the active and inactive calls. The calls are words filed in the database; no cut-off is given here.

Columns and labels:
Rattus norvegicus [1] = assay: Antiinflammatory activity in po dosed rat assessed as reduction of carrageenan-induced foot edema administered as two doses; type: functional, organism-based
Rattus norvegicus [2] = assay: Antiinflammatory activity against rat adjuvant arthritis model assessed as reduction of swelling in non-injected foot at 50 mg/kg, po administered for 16 days; type: functional; details: 384 h
[3] = Acute toxicity in po dosed mouse; type: organism-based; details: in vivo
Rattus norvegicus [4] = assay: Antiinflammatory activity in rat assessed as reduction of carrageenan-induced foot edema at 100 mg/kg, po administered as two doses; type: functional
Rattus norvegicus [5] = assay: Antiinflammatory activity against rat adjuvant arthritis model assessed as reduction of swelling in non-injected foot at 100 mg/kg, po administered for 16 days; type: functional; details: 384 h
Rattus norvegicus [6] = assay: Antiinflammatory activity against rat adjuvant arthritis model assessed as reduction of swelling in non-injected foot at 33 mg/kg, po administered for 16 days; type: functional; details: 384 h
Rattus norvegicus [7] = assay: Antiinflammatory activity in rat assessed as reduction of carrageenan-induced foot edema at 50 mg/kg, po administered as two doses; type: functional
Rattus norvegicus [8] = assay: Antiinflammatory activity in rat assessed as reduction of carrageenan-induced foot edema at 25 mg/kg, po administered as two doses; type: functional
Rattus norvegicus [9] = assay: Antiinflammatory activity against rat adjuvant arthritis model assessed as reduction of swelling in non-injected foot at 1 mg/kg, po administered for 16 days; type: functional; details: 384 h

Row | SMILES | LD50 [3] | inhibition in vivo at 100 mg/kg (Rattus norvegicus [4]) | inhibition in vivo at 100 mg/kg (Rattus norvegicus [5]) | other results
1 | C/C=C/C(=O)c1ccc(-c2ccccc2)cc1 | – | – | – | inhibition (Rattus norvegicus [1]): inactive
2 | CC(C(=O)O)c1ccc2c3c(cccc13)C(c1ccccc1)C2 (configuration not stated) | 1600 mg/kg | 44% | – | inhibition in vivo at 50 mg/kg (Rattus norvegicus [2]): 50%
3 | CC1CCc2cc(-c3ccccc3)ccc21 (configuration not stated) | 1600 mg/kg | 35% | – | inhibition in vivo at 50 mg/kg (Rattus norvegicus [2]): 32%
4 | O=C([O-])Cc1ccc2c(c1)CCC2C1CCCCC1.[Na+] (configuration not stated) | 1200 mg/kg | 28% | – | –
5 | CC(C(=O)O)c1ccc2c(c1)C(=O)/C(=C/c1ccc(Cl)cc1)C2 (configuration not stated) | – | – | 53% | –
6 | O=C(O)CCc1ccc(CC(=O)O)cc1 | – | – | – | inhibition (Rattus norvegicus [1]): inactive
7 | CCCCC1C(=O)N(c2ccccc2)N(c2ccccc2)C1=O [PHENYLBUTAZONE] | – | – | – | inhibition in vivo at 33 mg/kg (Rattus norvegicus [6]): 42%; inhibition in vivo at 50 mg/kg (Rattus norvegicus [7]): 30%; inhibition in vivo at 50 mg/kg (Rattus norvegicus [2]): 50%
8 | C[C@]12CCC(=O)C=C1CC[C@@H]1[C@@H]2[C@@H](O)C[C@@]2(C)[C@H]1CC[C@]2(O)C(=O)CO [HYDROCORTISONE] | – | – | – | inhibition in vivo at 50 mg/kg (Rattus norvegicus [7]): 51%
9 | O=C(O)Cc1ccc2c(c1)C(=O)CC2 | 1600 mg/kg | 0% | – | –
10 | O=C1CC(c2ccccc2)c2ccccc21 (configuration not stated) | 1600 mg/kg | 48% | 36% | –
11 | O=C(O)Cc1ccc2c3c(cccc13)C(c1ccccc1)C2 (configuration not stated) | 400 mg/kg | 53% | 0% | –
12 | O=C(O)CCC1CC(c2ccccc2)c2ccccc21 (configuration not stated) | 300 mg/kg | – | – | inhibition in vivo at 25 mg/kg (Rattus norvegicus [8]): 0%
13 | O=C(O)Cc1ccc2c(c1)C(=O)/C(=C/c1ccc(Cl)cc1)C2 | 1600 mg/kg | 0% | 43% | –
14 | O=C(O)Cc1ccc2c(c1)C(=O)/C(=C/c1ccccc1)C2 | 1600 mg/kg | 26% | 25% | –
15 | O=C(O)Cc1ccc(C2CC(=O)c3ccccc32)cc1 (configuration not stated) | 1600 mg/kg | 36% | 52% | –
16 | CC1CC(=O)c2cc(-c3ccccc3)ccc21 (configuration not stated) | 1600 mg/kg | 7% | – | –
17 | COc1ccc2c(c1)c(CC(=O)O)c(C)n2C(=O)c1ccc(Cl)cc1 [INDOMETHACIN] | – | – | – | inhibition in vivo at 1 mg/kg (Rattus norvegicus [9]): 57%
18 | O=C(O)Cc1ccc(C(CC(=O)O)c2ccccc2)cc1 (configuration not stated) | – | – | – | inhibition (Rattus norvegicus [1]): inactive
19 | O=C(O)CC1CC(c2ccccc2)c2ccccc21 (configuration not stated) | 1600 mg/kg | 0% | – | –
20 | O=C(O)Cc1ccc2c(c1)C(=O)CC2C1CCCCC1 (configuration not stated) | 1200 mg/kg | 8% | – | –
